Values of other authors, collected in patent EP2143418A1, “Antiperspirant compositions” (Unilever PLC, priority 2008, dated 2010).

Test system: Staphylococcus epidermidis
Conditions: 80% or greater reduction in growth of inoculum, 16 to 24 hours at 37°C

| SMILES | MIC |
| --- | --- |
| CCO [ethanol] | greater than 1 mg.ml^-1 |
| Oc1cc(Cl)ccc1Oc1ccc(Cl)cc1Cl [triclosan, 2',4,4'-trichloro,2-hydroxy-diphenyl ether] | 0.01 to 10 mg/L |
| CC(C)=CCCC(C)=CCCC(C)=CCO [farnesol, 3,7,11-trimethyldodeca-2,6,10-trienol] | ca. 25 µg.ml^-1 |
